Tests used:
[1] = test system: IL-1 production by J774-1 mouse macrophage cells; test: Action on IL-1 Production by Strain J774-1 Mouse Macrophage Cells (LPS stimulated); type: cell-based; details: 100 μM compound, LPS 1 μg/ml, 24 hours, read-out: IL-1 Production Inhibition Rate with respect to Control Group
Procedure: It is also known that these cells produce IL-1 when stimulated with LPS. The inhibitory action on IL-1 production of compounds of the present invention was measured according to the following procedure using this cell line.
The J774-1 cells were cultured in RPMI-1640 medium containing 10% fetal bovine serum and 50 μM 2-mercaptoethanol followed by adjusting the number of cells to 2×10^5 cells/ml. 1 ml aliquots of this cell suspension were then placed in the wells of a 24 well plate and cultured for 30 minutes. Following culturing, LPS was added to a final concentration of 1 μg/ml. At the same time, compounds obtained in Examples were dissolved in sterilized distilled water and added at a concentration of 100 μM. […]
The samples obtained above were serially diluted by a factor of 2 in a 96 well multiplate at a capacity of 50 μl. […] The thymus cells were then cultured for 72 hours and IL-1 activity was determined from the growth rate of the cells. […] Using the absorbance of the pigment produced by this reduction at 570 nm as the index, the dilution factor of the sample when growth of thymus cells is induced by 50% was calculated in terms of the number of units of that sample by taking the case of induction of maximum growth of T cells by human gene recombinant IL-1 to be 100% growth, and growth in the case of not adding IL-1 to be 0%. […]

[2] = test system: IL-1 stimulated release of proteoglycan from cartilage cells; test: Proteoglycan release from IL-1 stimulated rabbit knee joint cartilage cells (35S label); type: cell-based, New Zealand White rabbits; details: 100 μM compound, IL-1β 30 units/ml, 24 hours
Procedure: When cartilage from a rabbit knee joint is isolated and cultured followed by IL-1 stimulation, proteoglycan of glycoprotein, the major component of cartilage, is released. The IL-1 inhibitory action of compounds of the present invention was measured as described below using this action as an index.
Exsanguination was performed on 3 week old, male New Zealand White rabbits having body weights of 250-300 g under diethyl ether anesthesia, after which the knee joints were removed. The cartilage portions of the knee joints were removed with a scalpel and immersed in a CMF solution comprising 0.14M sodium chloride, 4 mM potassium chloride, 0.4 mM sodium dihydrogen phosphate, 12 mM sodium bicarbonate, 0.2 mM potassium dihydrogen phosphate and 11 mM glucose. This cartilage was then placed in 0.1% EDTA and incubated for 20 minutes at 37° C. […]
The cell layer was dissolved by adding 200 μg of pronase E and treating for 24 hours at 37° C. […] The precipitated proteoglycan was collected in a glass filter, added to a liquid scintillator and counted with a liquid scintillation counter. […]
Each of the resulting counts were expressed as a percentage of the count obtained from the initially added inorganic sulfuric acid. […]

## CSc1ccc(SC(P(=O)(O)O)P(=O)(O)O)cc1 [Example 2, (4-methylthiophenyl)thiomethanediphosphonic acid]
[1]
  inhibition at 100 µM: 51.4%
[2]; cell layer
  Proteoglycan count, Cell Layer (percentage of the count from initially added inorganic sulfuric acid): 0.28 ± 0.019%
[2]; cell supernatant
  Proteoglycan count, Cell Supernatant (percentage of the count from initially added inorganic sulfuric acid): 0.74 ± 0.061%
